Series [1] concerns the target T1, Curled (NOCT ortholog), full-length, Curled 1-419 (Drosophila melanogaster, UniProt A8JQX3).
T1 construct: gene cu; full length 1-419 of splicing form H; E. coli, pGEX-6P, GST tag removed with Prescission protease
T1 sequence (A8JQX3 224-642): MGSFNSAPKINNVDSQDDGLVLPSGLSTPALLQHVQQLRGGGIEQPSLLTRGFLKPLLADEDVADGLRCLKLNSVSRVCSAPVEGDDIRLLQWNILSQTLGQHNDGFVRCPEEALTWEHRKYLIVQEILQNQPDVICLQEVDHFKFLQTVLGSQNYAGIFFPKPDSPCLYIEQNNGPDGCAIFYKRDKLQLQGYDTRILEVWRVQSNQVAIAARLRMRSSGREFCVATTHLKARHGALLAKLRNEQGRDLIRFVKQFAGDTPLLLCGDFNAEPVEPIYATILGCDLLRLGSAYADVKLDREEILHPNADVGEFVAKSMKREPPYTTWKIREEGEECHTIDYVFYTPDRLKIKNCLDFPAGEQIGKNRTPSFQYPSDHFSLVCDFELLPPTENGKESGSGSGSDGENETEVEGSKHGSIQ
Briefly: ion-exchange chromatography, UV […] nm. It counts as biochemical. The settings on record: 22 °C, 20 mM Tris-HCl pH 8.0, 70 mM NaCl, 2 mM MgCl2.

Series [2] deals with T2, NOCT (122-431), catalytic domain of human NOCT (Homo sapiens, UniProt Q9UK39).
T2 construct: catalytic domain, residues 122-431; E. coli BL21 (DE3)-CodonPlus RIPL, pGEX-6P, GST tag removed with Prescission protease
T2 sequence (Q9UK39 122-431): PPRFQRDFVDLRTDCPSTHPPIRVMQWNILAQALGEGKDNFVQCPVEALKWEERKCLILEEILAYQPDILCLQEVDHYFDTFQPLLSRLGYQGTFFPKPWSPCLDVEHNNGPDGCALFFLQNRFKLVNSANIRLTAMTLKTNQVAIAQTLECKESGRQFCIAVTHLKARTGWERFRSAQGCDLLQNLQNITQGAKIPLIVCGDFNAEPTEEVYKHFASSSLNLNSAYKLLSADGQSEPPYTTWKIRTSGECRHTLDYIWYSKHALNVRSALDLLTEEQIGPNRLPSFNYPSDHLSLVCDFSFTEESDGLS
Briefly: LC-MS/MS product detection. It counts as biochemical. The settings on record: 10 μM enzyme, 1 h at r.t.

Series [3] has as its target T3, full-length (FL) human NOCT (Homo sapiens, UniProt Q9UK39).
T3 construct: E. coli, pGEX-6P, GST tag removed with Prescission protease
T3 sequence (Q9UK39 1-431): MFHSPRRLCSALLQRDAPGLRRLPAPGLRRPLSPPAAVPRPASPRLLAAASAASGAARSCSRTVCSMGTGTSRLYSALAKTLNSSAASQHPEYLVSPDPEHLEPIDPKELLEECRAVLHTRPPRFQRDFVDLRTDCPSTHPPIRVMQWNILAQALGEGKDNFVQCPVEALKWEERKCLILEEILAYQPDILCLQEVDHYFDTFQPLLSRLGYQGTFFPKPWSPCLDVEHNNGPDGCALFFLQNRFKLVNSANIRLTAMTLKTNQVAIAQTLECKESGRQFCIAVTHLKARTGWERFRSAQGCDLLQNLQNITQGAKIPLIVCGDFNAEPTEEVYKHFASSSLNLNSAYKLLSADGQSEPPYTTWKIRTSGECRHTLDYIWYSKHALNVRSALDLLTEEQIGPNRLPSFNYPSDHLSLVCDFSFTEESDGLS
Briefly: ion-exchange chromatography, UV […] nm. The class given is biochemical. The settings on record: 22 °C, 20 mM Tris-HCl pH 8.0, 70 mM NaCl, 2 mM MgCl2; 1 mM substrate, 0.5 μM enzyme.

Substrate in the series “purified protein”: NC(=O)C1=CN([C@@H]2O[C@H](COP(=O)(O)OP(=O)(O)OC[C@H]3O[C@@H](n4cnc5c(N)ncnc54)[C@H](OP(=O)(O)O)[C@@H]3O)[C@@H](O)[C@H]2O)C=CC1
Briefly: purified protein. Conditions: 22 °C, 20 mM Tris-HCl pH 8.0, 70 mM NaCl.

Turning to `NC(=O)C1=CN([C@@H]2O[C@H](COP(=O)(O)OP(=O)(O)OC[C@H]3O[C@@H](n4cnc5c(N)ncnc54)[C@H](OP(=O)(O)O)[C@@H]3O)[C@@H](O)[C@H]2O)C=CC1` [NADPH], the “ion-exchange chromatography, UV 260 nm” value in series [1] (1 mM substrate, 500 nM enzyme) is recorded as “In contrast, Curled readily cleaved NADPH (Fig. 5c; Supplementary Fig. 5b)”.

As to `NC(=O)c1ccc[n+]([C@@H]2O[C@H](COP(=O)(O)OP(=O)(O)OC[C@H]3O[C@@H](n4cnc5c(N)ncnc54)[C@H](OP(=O)(O)O)[C@@H]3O)[C@@H](O)[C@H]2O)c1` [NADP^+], the LC-MS/MS product detection result in series [2] is “converted NADPH into NADH and NADP^+ into NAD^+ (Fig. 1c)”. The “ion-exchange chromatography, UV 260 nm” value in series [1] is “Curled cleaved both NADP^+ and NADPH, exhibiting a preference for NADPH”; in series [3] it was “conversion of both NADP^+ and NADPH into NAD^+ and NADH, respectively by full-length (FL) NOCT”.

B1: full-length (FL) human NOCT (Homo sapiens) (protein)
chain: T3 sequence (Q9UK39 1-431)
In the case of B1, the kcat in the series “purified protein” (2 mM MgCl2, printed range may span catalytic domain and full-length protein) was 34 s⁻¹.

B2: NOCT (122-431), catalytic domain of human NOCT (Homo sapiens) (protein)
chain: T2 sequence (Q9UK39 122-431)
For B2, in the series “purified protein” (2 mM MgCl2, 4.8 μM enzyme, printed range may span catalytic domain and full-length protein), the kcat was determined as 3.6 s⁻¹.

The record behind these values is article PMC6542800 (Nature Communications, 2019).
